# From a melting point compilation (Tetko et al.; mined from patent text by program, amines drawn as free bases though some values may be those of a salt)
row,Structure (SMILES),melting point [°C]
1,COCCOc1cc(N(C)S(=O)(=O)c2ccccn2)c2[nH]c(C3=NCC(CC(=O)O)S3)cc2c1 (stereo not drawn),107 to 109
2,Nc1ccc(C23CC2C(=O)NC3=O)cc1 (stereo not drawn),183 to 185
3,CCN(CC)CC(=O)OC1CC2(C)C(C(C)=O)CCC2C2CCC3CC(O)C(SC#N)CC3(C)C12 (stereo not drawn),173 to 180
4,O=C(O)Cc1ccc(OCCNC(=O)C2Cc3ccccc3N2S(=O)(=O)c2ccc(-c3cc(C(F)(F)F)ccc3F)cc2)cc1 (stereo not drawn),81 to 84
5,CON=C(C)c1cc(-c2ccc(S(C)(=O)=O)cc2)c(-c2ccc(F)cc2)s1,200 to 203
6,Cc1nc(-n2cc(-c3ccc(OCc4ccccc4)cc3)nn2)sc1C(=O)NCc1ccccc1,237 to 240
7,N=c1[nH]c(=N)c2ncn(C3OC(CO)C(O)C3O)c2c(=N)[nH]1 (stereo not drawn),> 200
8,CC(C)C(=O)CCSc1cc(C(C)(C)C)c(O)c(C(C)(C)C)c1,50 to 53
9,Cc1nnc(-c2ccc3occ(-c4ccc(C#N)cc4)c3c2)o1,201 to 202
10,CCON=C(CC)C1=C(O)CC(c2cc3c(cc2[N+](=O)[O-])OCO3)CC1=O (stereo not drawn),122
11,COc1cc(-c2nc3ccc(OCCCN(C)C)cc3n2Cc2ccccc2)cc(OC)c1OC,112
12,CCOC(=O)COc1ccc(NC(=O)c2sc(NC(=N)N)nc2C)cc1,223
13,COC(=O)c1ccc(-c2oc3cc(NS(C)(=O)=O)ccc3c(=O)c2OS(C)(=O)=O)cc1,250
14,CCOc1cc2ncc(C#N)c(Nc3ccc4c(=O)[nH][nH]c(=O)c4c3)c2cc1OCC,> 270
15,CC=CCn1c(N(C(C)=O)c2cc(C)cc(C)c2)c(C(C)C)c(=O)[nH]c1=O,103 to 105
16,CCOC(=O)c1ccc(-c2ccc(Cl)cc2)[nH]1,148
17,CCOC(=O)c1cnc2c(c(C)nn2-c2ccccc2)c1N(Cc1ccccc1)S(=O)(=O)c1ccc(OC)cc1,164 to 166
18,ClCc1cn2ccccc2n1,93 to 94
19,COC(=O)c1cc(=O)c2c(C)cc(Br)cc2[nH]1,258 to 259
20,CN1CC2Cc3ccc(Cl)cc3C(=O)C2C1 (stereo not drawn),148 to 150
21,Cc1nn(-c2cc(OS(C)(=O)=O)c(Cl)cc2F)c(C)c1C,123 to 125
22,Cc1nc(-c2cccnc2)sc1-c1ccnc(Nc2cccc(CN)c2)n1,211 to 213
23,CCOc1ccc(C(=O)Nc2ccccc2)cc1N(c1ccccc1)C(F)(F)F,184 to 185

# Next, values leading:
row,melting point [°C],Structure (SMILES)
1,160 to 164,COc1cccc2c1Oc1sc(C)cc1C(=O)N2
2,74 to 76,CCOC(=O)c1ccc(CN2CCC(NC(=O)OC(C)(C)C)CC2)cc1
3,199 to 201,C1=C(N2c3ccccc3Sc3ccccc32)N(C2=NCCC2)CC1
4,160,CC(C)(C)NC(=O)c1ncccc1CC(=O)C1CCC(C(=O)O)CC1 (stereo not drawn)
5,79 to 81,CCCC(CO)N1CC(COc2cccc(Cl)c2)OC1=O (stereo not drawn)
6,258 to 259,CCCn1c(=O)c2[nH]c(/C=C/c3ccco3)nc2n(CCC)c1=O
7,> 300,COc1ccc(-c2[nH]nc3c2C(=O)c2c(NC(=O)CN4CCC(O)CC4)cccc2-3)cc1
8,101 to 102,CC1CCC(Nc2nccc(Oc3ccc(NC(=O)c4cc(F)cc(N5CCCCC5)c4)c4ccccc34)n2)CC1 (stereo not drawn)
9,191,Brc1cn2ccnc2c(N2CCOCC2)n1
10,185 to 186,CCCc1nc2c(N)ncc(Br)c2n1CCOCCNC(=O)NC1CCCCC1
11,72 to 75,CN1CCN(c2cccc(-c3cnn4c(N)c(Cc5ccccc5)cnc34)c2)CC1
12,92 to 95,Cc1ccc(F)c(C(C)Oc2ccc3nc(NC(=O)NCCN4CCOCC4)sc3c2)c1F (stereo not drawn)
13,131 to 133,CCCCCCc1nc(N)n2nc(-c3ccco3)nc2n1
14,265 to 267,Cc1cc(N2CCN(Cc3ccc(F)cc3)C2=O)sc1C(=O)NCc1nc2ccccc2[nH]1
15,178 to 179,O=C(Cn1c(-c2ccc(Br)cc2)nc2cccnc21)NCCN1CCCCC1
